These results are taken from PMC7027535 (Journal of Pineal Research, 2020).

The experiment has as its target T1, Notum (Homo sapiens, UniProt Q6P988, C330S).
T1 sequence (Q6P988 81-451 C330S): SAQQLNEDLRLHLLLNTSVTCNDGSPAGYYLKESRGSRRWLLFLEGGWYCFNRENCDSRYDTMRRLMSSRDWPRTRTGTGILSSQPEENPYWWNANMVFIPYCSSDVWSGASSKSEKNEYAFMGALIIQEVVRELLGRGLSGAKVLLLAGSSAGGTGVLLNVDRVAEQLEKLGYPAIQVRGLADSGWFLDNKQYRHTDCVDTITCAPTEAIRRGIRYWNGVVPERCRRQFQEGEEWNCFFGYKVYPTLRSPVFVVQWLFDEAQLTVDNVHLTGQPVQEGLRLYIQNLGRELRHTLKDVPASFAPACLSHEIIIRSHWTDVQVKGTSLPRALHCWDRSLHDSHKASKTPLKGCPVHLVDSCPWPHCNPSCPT
In words: X-ray crystal structure ([…] Å); thermal shift (Tm […] to […] °C); OPTS enzyme inhibition IC50. The format is biochemical.

For orientation: IC50 means the midpoint of a concentration-inhibition curve. Regarding `CC(=O)NCCc1c[nH]c2ccc(O)cc12` [ASE, N‐acetylserotonin], the IC50 worked out at 94 µM.
